Laboratory results published in patent US20220296108A1, “METHOD AND APPARATUS FOR QUANTITATION OF MICROCIRCULATION” (Seoul National University Hospital, priority 2019, published 2022).

Columns and labels:
CLP mouse model [1] = assay: Functional capillary ratio (FCR) by intravital lung imaging in Mac-1-inhibited CLP mouse model
Procedure: CLP model was performed by a single experienced operator according to a previously described method. Specifically, 75% of the cecum of the LysM^GFP/+ mouse was ligated with 6-0 black silk and single puncture with a dual hole in the distal cecum was made with a 21-gauge needle. After the puncture, the cecum was gently squeezed to confirm the patency of the puncture hole for extrusion of feces. The cecum was replaced to the abdominal cavity and the abdominal incision was closed with 4-0 black silk. A normal group (sham group) underwent the same surgical procedure except the cecal ligation and puncture. […]
Specifically, three continuous laser modules (488 nm (MLD488, Cobolt), 561 nm (Jive, Cobolt) and 640 nm (MLD640, Cobolt)) were utilized as excitation light sources for multi-color fluorescence imaging. […] The fluorescence signals emitted from the lung of the mouse model on a XYZ translational 3D stage (3DMS, Sutter Instrument) were epi-detected by the objective lenses. De-scanned three-color fluorescence signals were spectrally divided by diachronic beam splitters (DBS4; FF560-Di01, DBS5; FF649-Di01, Semrock) and then detected by a photomultiplier (PMT; R9110, Hamamatsu) through bandpass filters (BPF1; FF02-525/50, BPF2; FF01-600/37, BPF3; FF01-685/40, Semrock). […]

CLP mouse model [2] = assay: Histological analysis of the number of sequestered neutrophils (Ly6G+ cells) in Mac-1-inhibited CLP mouse model; type: in vivo; conditions: vs CLP mouse model (Fc) and normal group (Sham), FIG. 28B
Excerpt: Specifically, lung tissues were harvested after intravital imaging of the mouse models. The tissues were perfused and fixed with 4% paraformaldehyde and then further fixed overnight in 4% paraformaldehyde. For H&E (hematoxylin and eosin) staining, the fixed tissues were processed using standard procedures, embedded in paraffin and then sliced into 4-μm sections, followed by conventional H&E staining.

CLP mouse model [3] = assay: Arterial blood gas analysis in CLP mouse model before and after abciximab; type: in vivo; conditions: post-Abc CLP mouse vs normal group (Sham)
Procedure: In addition, arterial blood gas analysis was performed to assess the oxygen partial pressure and carbon dioxide partial pressure in the arterial blood of the pre-Abc mouse model and the post-Abc mouse model. Specifically, a 1-mL syringe with a 22-gauge needle was coated with heparin and introduced into the left ventricle of the heart of the normal mouse model (Sham) (n=8), pre-Abc mouse model (Fc) (n=10) and post-Abc mouse model (Abc) (n=6). Then, about 200 μL of blood was sampled and analyzed with an i-STAT handheld blood analyzer (G3 cartridge, Abbott Point of Care Inc.). The mice were euthanized in a CO2 chamber right after the blood sampling.

## abciximab
CLP mouse model [1]; CLP mouse imaged 6 hours after CLP (pre-Abc), then 30 minutes after abciximab (post-Abc)
  Functional capillary ratio (FCR) increase after vs before abciximab administration: ≥ 2 times
CLP mouse model [1]; CLP mouse, vs CLP mouse model (Fc), FIG. 27
  Dead space and functional capillaries in pulmonary microcirculation imaging: dead space was decreased
CLP mouse model [2]
  Number of sequestered neutrophils (Ly6G+ cells): recovered to a level comparable to that of the normal group
CLP mouse model [3]; FIG. 31A
  Oxygen partial pressure in arterial blood: comparable to that of the normal group
CLP mouse model [3]; FIG. 31B
  Carbon dioxide partial pressure in arterial blood: comparable to that of the normal group
